# Test results from ChEMBL document CHEMBL5230095, “Advances in research of spirodienone and its derivatives: Biological activities and synthesis methods” (Eur J Med Chem, 2020).
# Columns and labels:
# Staphylococcus aureus = assay: Antibacterial activity against Staphylococcus aureus; assay type: functional
# Influenza A virus [1] = conditions: mdck
# Description: (§2) Antiviral activity against influenza A virus (A/Hanfang/359/95(H3N2)) infected in MDCK cells
# MDCK = assay: (§1) Cytotoxicity against MDCK cells; assay type: toxicity, cell-based, Canis lupus familiaris; conditions: dog, mdck; read-out: TC50 (the source's name)
# A549 = assay: Antiproliferative activity against human A549 cells; assay type: functional, cell-based
# MCF7 = assay: Antiproliferative activity against human MCF7 cells; assay type: functional, cell-based
# HeLa = assay: Antiproliferative activity against human HeLa cells; assay type: functional, cell-based
# MDA-MB-231 = assay: Antiproliferative activity against human MDA-MB-231 cells; assay type: functional, cell-based
# Streptococcus pneumoniae = assay: Antibacterial activity against Streptococcus pneumoniae; assay type: functional
# Enterococcus faecalis = assay: Antibacterial activity against Enterococcus faecalis; assay type: functional
# [2] = Inhibition of yeast pre-mRNA splicing; design: species or system Saccharomyces cerevisiae
# [3] = as §1; assay type: toxicity, cell-based, Canis lupus familiaris; conditions: dog, MDCK cells; read-out: TC50 (the source's name)
# Influenza A virus [4] = assay: microbe, parasite or virus in culture; conditions: H3N2, MDCK
# Description: as §2
# in vitro = conditions: dog, MDCK cells, TI
# Description: Therapeutic index, ratio of TC50 for MDCK cells to IC50 for antiviral activity against influenza A virus (A/Hanfang/359/95(H3N2))
# NCI-H460 = assay: Antiproliferative activity against human NCI-H460 cells; assay type: functional, cell-based
# KB = assay: Antiproliferative activity against human KB cells; assay type: functional, cell-based
# SF-268 = assay: Antiproliferative activity against human SF-268 cells; assay type: functional, cell-based
# K562 = assay: Cytotoxicity against human K562 cells; assay type: functional, cell-based
# Plasmodium falciparum = assay: Antimalarial activity against Plasmodium falciparum 3D7; assay type: functional, organism-based
# Jurkat = assay: Cytotoxicity against human Jurkat cells; assay type: functional, cell-based
# [5] = Antiinflammatory activity in human polymorphonuclear neutrophils assessed as reduction in LPS-stimulated TNFalpha release; assay type: functional, Polymorphonuclear neutrophil; design: scale not given: the % may be the effect or the level left
# [6] = Antiinflammatory activity in human polymorphonuclear neutrophils assessed as reduction in LPS-stimulated IL-8 release; assay type: functional, Polymorphonuclear neutrophil; design: scale not given: the % may be the effect or the level left
# [7] = Antiinflammatory activity in human polymorphonuclear neutrophils assessed as reduction in LPS-stimulated IL-1beta release; assay type: functional, Polymorphonuclear neutrophil; design: scale not given: the % may be the effect or the level left
# SMMC-7721 = assay: Antiproliferative activity against human SMMC-7721 cells; assay type: functional, cell-based
# SW480 = assay: Antiproliferative activity against human SW480 cells; assay type: functional, cell-based
# HL-60 = assay: Antiproliferative activity against human HL-60 cells; assay type: functional, cell-based
# [8] = molecular target: DNA polymerase alpha catalytic subunit (Homo sapiens, UniProt P09884); assay: Inhibition of DNA polymerase alpha (unknown origin)
# Neutrophil elastase = Neutrophil elastase (Homo sapiens, UniProt P08246); assay: Inhibition of human neutrophil elastase activity assessed as reduction in elastase release
# Chain of Neutrophil elastase (P08246 whole entry): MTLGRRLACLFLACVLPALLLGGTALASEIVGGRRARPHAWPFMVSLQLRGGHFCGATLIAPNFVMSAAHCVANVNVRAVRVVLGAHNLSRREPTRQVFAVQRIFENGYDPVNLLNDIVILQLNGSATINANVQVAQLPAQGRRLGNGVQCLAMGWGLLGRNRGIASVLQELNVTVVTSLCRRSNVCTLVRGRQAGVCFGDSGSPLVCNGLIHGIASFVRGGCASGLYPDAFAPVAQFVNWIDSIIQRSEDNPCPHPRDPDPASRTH
# Chain of DNA polymerase alpha catalytic subunit (P09884 whole entry): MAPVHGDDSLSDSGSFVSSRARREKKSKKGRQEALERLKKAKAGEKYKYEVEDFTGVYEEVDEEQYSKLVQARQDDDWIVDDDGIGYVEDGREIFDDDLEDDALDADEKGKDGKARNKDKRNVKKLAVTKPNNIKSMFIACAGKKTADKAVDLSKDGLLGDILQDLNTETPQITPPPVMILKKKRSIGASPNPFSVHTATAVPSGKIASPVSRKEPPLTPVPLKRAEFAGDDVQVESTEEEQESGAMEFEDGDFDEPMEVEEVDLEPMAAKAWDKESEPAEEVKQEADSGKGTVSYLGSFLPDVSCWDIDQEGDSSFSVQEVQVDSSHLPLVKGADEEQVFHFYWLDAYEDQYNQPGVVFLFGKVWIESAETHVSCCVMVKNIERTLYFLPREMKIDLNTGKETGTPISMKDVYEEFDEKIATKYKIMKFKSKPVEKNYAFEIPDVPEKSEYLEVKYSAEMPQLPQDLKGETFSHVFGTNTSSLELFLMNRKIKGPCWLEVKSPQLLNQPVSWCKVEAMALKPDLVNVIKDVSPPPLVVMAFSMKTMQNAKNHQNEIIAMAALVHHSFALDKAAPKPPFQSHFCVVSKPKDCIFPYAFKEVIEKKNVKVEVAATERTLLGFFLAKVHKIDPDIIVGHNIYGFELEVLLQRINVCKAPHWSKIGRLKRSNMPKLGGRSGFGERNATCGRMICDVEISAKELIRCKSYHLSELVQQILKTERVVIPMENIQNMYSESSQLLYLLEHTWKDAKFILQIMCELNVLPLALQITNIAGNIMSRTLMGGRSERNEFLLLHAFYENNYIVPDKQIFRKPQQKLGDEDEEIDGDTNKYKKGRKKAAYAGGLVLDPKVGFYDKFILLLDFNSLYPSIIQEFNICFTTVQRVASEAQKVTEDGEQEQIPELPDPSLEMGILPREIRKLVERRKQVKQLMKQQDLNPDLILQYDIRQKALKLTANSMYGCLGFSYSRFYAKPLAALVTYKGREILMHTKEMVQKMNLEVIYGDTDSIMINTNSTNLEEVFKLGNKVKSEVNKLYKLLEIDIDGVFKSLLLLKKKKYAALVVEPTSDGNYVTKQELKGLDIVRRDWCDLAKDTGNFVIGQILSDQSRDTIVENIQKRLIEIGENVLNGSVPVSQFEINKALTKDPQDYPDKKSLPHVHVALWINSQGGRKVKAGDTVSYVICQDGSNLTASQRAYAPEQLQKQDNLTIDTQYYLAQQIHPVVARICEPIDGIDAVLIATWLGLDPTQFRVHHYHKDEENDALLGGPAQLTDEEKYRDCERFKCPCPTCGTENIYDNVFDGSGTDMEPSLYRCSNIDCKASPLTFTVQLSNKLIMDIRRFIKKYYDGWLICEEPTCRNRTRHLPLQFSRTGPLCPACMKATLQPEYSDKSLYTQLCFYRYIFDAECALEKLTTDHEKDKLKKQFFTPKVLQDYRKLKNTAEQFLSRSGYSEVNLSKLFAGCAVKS
smiles,measurement,setting,value
C/C1=C/[C@@H](C)/C=C(\C)C(=O)[C@@H](C)[C@@H]2[C@@H](C)C(=O)N[C@@]23C[C@]24O[C@](C)(C(=O)c5c(O)c(C)cc(c52)C3=O)C14 (stereo partly specified),MIC,Staphylococcus aureus,62.5 µg/mL
COC1=CC(=O)c2ccc(=O)oc2C12C(C=C(C)C)CC1(C)CC(C)=CC(c3c(OC)cc(OC)c4ccc(=O)oc34)C1C2c1c(OC)cc(OC)c2ccc(=O)oc12 (racemic; form 2),IC50,Influenza A virus [1],2.87 µM
same,CC50,MDCK,25.9 µM
O=C1C=CC2(C=C1)OCC(=O)N2c1nc(-c2cccs2)nn1-c1ccccc1,IC50,A549,0.0252 µM
same,IC50,MCF7,0.00411 µM
same,IC50,HeLa,0.0453 µM
same,IC50,MDA-MB-231,0.0008 µM
CC(C)=CCC[C@]1(C)OC2=C(Cl)C(=O)C=C[C@@]23CC(=C(C)C)C[C@@H]13,MIC,Staphylococcus aureus,> 64 µg/mL
same,MIC,Streptococcus pneumoniae,> 64 µg/mL
same,MIC,Enterococcus faecalis,> 64 µg/mL
Cc1ccc(S(=O)(=O)NC2CC3(C=CC(=O)C(NC(=O)c4ccccc4)=C3)OC2=O)cc1 (stereo unspecified),IC50,[2],700 µM
C/C(=C\C=C/[C@@H](C)/C=C(\C)C(=O)C1[C@@H]2[C@@H](CC(C)C)C(=O)N[C@@]23C[C@]1(O)c1cc(O)c(C)cc1C3=O)C(=O)O (stereo partly specified),MIC,Staphylococcus aureus,31.2 µg/mL
COC1=CC(=O)c2ccc(=O)oc2[C@@]12[C@H](c1c(OC)cc(OC)c3ccc(=O)oc13)[C@H]1[C@H](c3c(OC)cc(OC)c4ccc(=O)oc34)C=C(C)C[C@]1(C)C[C@@H]2C=C(C)C,CC50,[3],19.2 µM
same,IC50,Influenza A virus [4],9.86 µM
same,selectivity ratio,in vitro,1.9
COC1=CC2(C=CC1=O)CCC(=O)O2 (stereo unspecified),IC50,[2],3000 µM
NC(=O)c1ncn([C@@H]2O[C@H](CO)[C@@H](O)[C@H]2O)n1 [RIBAVIRIN],CC50,[3],4770 µM
same,IC50,Influenza A virus [4],6.19 µM
same,selectivity ratio,in vitro,771
O=C1C=CC(=C2C(=O)c3cc(O)cc4c3[C@@](c3ccc(O)cc3)(C(=O)O4)c3cc(O)cc(O)c32)C=C1,IC50,MCF7,99 µM
same,IC50,HeLa,> 100 µM
same,IC50,NCI-H460,> 100 µM
same,IC50,KB,> 100 µM
same,IC50,SF-268,> 100 µM
CCCCCCCCCCCCCC(=O)C1C(=O)N(Cc2ccccc2)C12C=CC(=O)C=C2 (stereo unspecified),IC50,"K562; Homo sapiens, K562",5.47 µM
same,IC50,"Plasmodium falciparum; Plasmodium falciparum, 3D7",1.35 µM
same,IC50,"Jurkat; Homo sapiens, Jurkat",2.88 µM
COC1=CC(=O)c2ccc(=O)oc2[C@]12[C@H](c1c(OC)cc(OC)c3ccc(=O)oc13)[C@H]1[C@H](c3c(OC)cc(OC)c4ccc(=O)oc34)C=C(C)C[C@]1(C)C[C@@H]2C=C(C)C,CC50,[3],77.6 µM
same,IC50,Influenza A virus [4],8.62 µM
same,selectivity ratio,in vitro,7.9
COc1cc(O)cc2c1C(=O)C(Cl)=C1O[C@@](C)(CCC=C(C)C)[C@@H]3CC(=C(C)C)C[C@@]123,MIC,Staphylococcus aureus,> 64 µg/mL
same,MIC,Streptococcus pneumoniae,> 64 µg/mL
same,MIC,Enterococcus faecalis,> 64 µg/mL
CCOC(=O)C1=C[C@@H](OC(CC)CC)[C@H](NC(C)=O)[C@@H](N)C1 [OSELTAMIVIR],CC50,[3],3070 µM
same,IC50,Influenza A virus [4],3.38 µM
same,selectivity ratio,in vitro,910
O=C1CCC2(C=CC(=O)C(NC(=O)c3ccccc3)=C2)O1 (stereo unspecified),IC50,[2],600 µM
C#CCCCCCCCCCCCN1C(=O)C(C2(OCC)CCC3(C=CC(=O)C=C3)O2)C12C=CC(=O)C=C2 (stereo in doubt; 30),IC50,"K562; Homo sapiens, K562",0.32 µM
same,IC50,"Plasmodium falciparum; Plasmodium falciparum, 3D7",1.72 µM
same,IC50,"Jurkat; Homo sapiens, Jurkat",0.14 µM
O=c1c(O)c(-c2ccc(O)c(O)c2)oc2cc(O)cc(O)c12 [QUERCETIN],Activity,[5],28%
same,Activity,[6],18%
same,Activity,[7],4%
CC(C)=CCC[C@]1(C)OC2=C(Cl)C(=O)c3c(O)cc(O)cc3[C@@]23CC(=C(C)C)C[C@@H]13,MIC,Staphylococcus aureus,1 µg/mL
same,MIC,Streptococcus pneumoniae,8 µg/mL
same,MIC,Enterococcus faecalis,1 µg/mL
C#CCCCCCCCCCCCN1C(=O)C(C2(OCC)CCC3(C=CC(=O)C=C3)O2)C12C=CC(=O)C=C2 (stereo in doubt; 31),IC50,K562; k562,0.36 µM
same,IC50,Plasmodium falciparum,1.41 µM
same,IC50,Jurkat; jurkat,0.15 µM
CCCCCCCCCCCCC/C(O)=C1\C(=O)N(Cc2ccccc2)CC12C=CC(=O)C=C2,IC50,"K562; Homo sapiens, K562",1.73 µM
same,IC50,"Plasmodium falciparum; Plasmodium falciparum, 3D7",2.29 µM
same,IC50,"Jurkat; Homo sapiens, Jurkat",1.42 µM
C#CCCCCCCC(=O)C1C(=O)N(Cc2ccccc2)C12C=CC(=O)C=C2 (stereo unspecified),IC50,"K562; Homo sapiens, K562",15.3 µM
same,IC50,"Plasmodium falciparum; Plasmodium falciparum, 3D7",7.7 µM
same,IC50,"Jurkat; Homo sapiens, Jurkat",7.4 µM
CCCCCCCCCCCCN1C(=O)C(C2(OC)CCC3(C=CC(=O)C=C3)O2)C12C=CC(=O)C=C2 (stereo in doubt; 29),IC50,K562; k562,0.18 µM
same,IC50,Plasmodium falciparum,0.91 µM
same,IC50,Jurkat; jurkat,0.06 µM
CC(=O)NC1=CC2(C=CC1=O)CC(NS(=O)(=O)c1ccc(C)cc1)C(=O)O2 (stereo unspecified),IC50,[2],1700 µM
O=C1C=CC2(C=C1)CCc1cc(O)cc(O[C@@H]3C[C@H](CO[C@@H]4OC[C@](O)(COC(=O)/C=C/c5ccc(O)c(O)c5)[C@@H]4O)[C@@H](O)[C@H](O)[C@H]3O)c12,Activity,[5],20%
same,Activity,[6],28%
same,Activity,[7],90%
COC1=C[C@@]23CCN(C)[C@@H](Cc4c(CN5CCc6cc(OC)c(O)cc6[C@H]5Cc5ccc(O)cc5)cc(OC)c(O)c42)C3=CC1=O,IC50,A549,> 40000 µM
same,IC50,SMMC-7721,> 40000 µM
same,IC50,SW480,> 40000 µM
same,IC50,HL-60,> 40000 µM
COc1cc(OC(C)=O)c2c(c1)C1(C=C(OC(C)=O)C(=O)C=C1C)OC2=O (stereo unspecified),IC50,[8],0.68 µM
CC(=O)NC1=CC2(C=CC1=O)CCC(=O)O2 (stereo unspecified),IC50,[2],800 µM
COC1=C[C@@H]2[C@@H]3Cc4c(CN5CCc6cc(OC)c(OC)c7c6[C@@H]5CC75C=CC(=O)C=C5)cc(OC)c(O)c4[C@]2(CCN3C)CC1=O,IC50,A549,18500 µM
same,IC50,SMMC-7721,17100 µM
same,IC50,SW480,18300 µM
same,IC50,HL-60,17400 µM
COC1=CC(=O)c2ccc(=O)oc2C12C(C=C(C)C)CC1(C)CC(C)=CC(c3c(OC)cc(OC)c4ccc(=O)oc34)C1C2c1c(OC)cc(OC)c2ccc(=O)oc12 (racemic; form 1),CC50,MDCK,6.42 µM
same,IC50,Influenza A virus [4],3.13 µM
O=C1C=CC2(C=C1)CCc1cc(O)cc(O[C@@H]3C[C@H](CO)[C@@H](O)[C@H](O)[C@H]3O)c12,Activity,[5],38%
same,Activity,[6],70%
same,Activity,[7],105%
COC1=CC(=O)c2ccc(=O)oc2[C@]12[C@H](C=C(C)C)C[C@]1(C)CC(C)=C[C@H](c3c(OC)cc(OC)c4ccc(=O)oc34)[C@H]1[C@@H]2c1c(OC)cc(OC)c2ccc(=O)oc12,CC50,[3],57.7 µM
same,IC50,Influenza A virus [4],17.5 µM
same,selectivity ratio,in vitro,3.3
Cc1cc(C)c2c(c1)OCC(=O)N2c1nc(-c2ccc(Cl)cc2Cl)nn1-c1ccccc1,IC50,HeLa,25.2 µM
same,IC50,MDA-MB-231,2.85 µM
COC(=O)[C@@]1(C2C=CC(=O)C=C2)c2cc(O)cc(O)c2[C@@H](c2ccc(O)cc2)C(=O)c2cc(O)cc(O)c21,IC50,MCF7,28 µM
same,IC50,HeLa,25.7 µM
same,IC50,NCI-H460,32.7 µM
same,IC50,KB,33.2 µM
same,IC50,SF-268,29.2 µM
CC1=C/[C@@H](C)/C=C(\C)[C@]2(O)[C@H](C)[C@@H]3[C@@H](C(C)C)C(=O)N[C@]34C(=O)c3cc(C)c(O)c(c3C(=O)[C@@H]42)C(=O)\C(C)=C\1,MIC,Staphylococcus aureus,31.2 µg/mL
COC1=CC(=O)c2ccc(=O)oc2[C@@]12[C@H](C=C(C)C)C[C@]1(C)CC(C)=C[C@H](c3c(OC)cc(OC)c4ccc(=O)oc34)[C@H]1[C@@H]2c1c(OC)cc(OC)c2ccc(=O)oc12,CC50,[3],77.6 µM
same,IC50,Influenza A virus [4],11.1 µM
same,selectivity ratio,in vitro,6.9
COc1cc2c(c3c1CCC(c1ccccc1)O3)C1C3C(c4ccc(O)c(C)c4OC)C(C(O)(OC)c4ccccc4)C14C(C=CC(=O)C4OC)OC3(c1ccccc1)O2 (stereo unspecified),IC50,Neutrophil elastase,6.53 µM
COc1cc(O)c2c(c1)C1(C=C(OC(C)=O)C(=O)C=C1C)OC2=O (stereo unspecified),IC50,[8],28 µM
CCCCCCCCCCCCN1C(=O)C(C2(OC)CCC3(C=CC(=O)C=C3)O2)C12C=CC(=O)C=C2 (stereo in doubt; 28),IC50,K562; k562,0.62 µM
same,IC50,"Plasmodium falciparum; Plasmodium falciparum, 3D7",1.68 µM
same,IC50,Jurkat; jurkat,0.35 µM
